Experimental data: ChEMBL document CHEMBL1148378 (J Med Chem, 2004)

What was measured:
Matrilysin = biological target: T1, Matrilysin (Homo sapiens, UniProt P09237); assay: Inhibition of Matrix metalloprotease-7
T1 sequence (P09237 whole entry): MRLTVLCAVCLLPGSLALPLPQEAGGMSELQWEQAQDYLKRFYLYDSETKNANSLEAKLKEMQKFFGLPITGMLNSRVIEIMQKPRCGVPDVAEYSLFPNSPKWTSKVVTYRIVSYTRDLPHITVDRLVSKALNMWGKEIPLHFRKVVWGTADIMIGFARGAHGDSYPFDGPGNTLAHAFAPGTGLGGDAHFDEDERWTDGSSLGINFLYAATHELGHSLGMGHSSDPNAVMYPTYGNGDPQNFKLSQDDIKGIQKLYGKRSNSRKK

Interstitial collagenase = biological target: T2, Interstitial collagenase (Homo sapiens, UniProt P03956); assay: Inhibition of matrix metalloprotease-1
T2 sequence (P03956 whole entry): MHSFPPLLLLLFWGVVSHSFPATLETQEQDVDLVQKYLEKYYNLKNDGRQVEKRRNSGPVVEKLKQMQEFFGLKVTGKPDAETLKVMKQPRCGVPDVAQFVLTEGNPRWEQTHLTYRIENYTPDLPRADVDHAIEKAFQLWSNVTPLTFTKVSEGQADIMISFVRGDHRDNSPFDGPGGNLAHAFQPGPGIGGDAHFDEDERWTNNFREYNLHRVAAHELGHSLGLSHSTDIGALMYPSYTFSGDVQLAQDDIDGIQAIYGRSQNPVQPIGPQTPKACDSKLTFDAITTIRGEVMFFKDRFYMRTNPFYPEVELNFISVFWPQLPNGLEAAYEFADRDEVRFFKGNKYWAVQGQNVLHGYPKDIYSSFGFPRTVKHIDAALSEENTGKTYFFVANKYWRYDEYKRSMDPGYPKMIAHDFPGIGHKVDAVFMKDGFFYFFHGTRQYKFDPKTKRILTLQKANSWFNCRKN

[1] = biological target: Matrix metalloproteinase-14 (Homo sapiens, UniProt P50281); assay: Inhibition of Matrix metalloprotease-14
Collagenase 3 = Collagenase 3 (Homo sapiens, UniProt P45452); assay: Inhibition of matrix metalloprotease-13
Stromelysin-3 = biological target: T3, Stromelysin-3 (Mus musculus, UniProt Q02853); assay: Inhibition of Matrix metalloprotease-11
T3 sequence (Q02853 whole entry): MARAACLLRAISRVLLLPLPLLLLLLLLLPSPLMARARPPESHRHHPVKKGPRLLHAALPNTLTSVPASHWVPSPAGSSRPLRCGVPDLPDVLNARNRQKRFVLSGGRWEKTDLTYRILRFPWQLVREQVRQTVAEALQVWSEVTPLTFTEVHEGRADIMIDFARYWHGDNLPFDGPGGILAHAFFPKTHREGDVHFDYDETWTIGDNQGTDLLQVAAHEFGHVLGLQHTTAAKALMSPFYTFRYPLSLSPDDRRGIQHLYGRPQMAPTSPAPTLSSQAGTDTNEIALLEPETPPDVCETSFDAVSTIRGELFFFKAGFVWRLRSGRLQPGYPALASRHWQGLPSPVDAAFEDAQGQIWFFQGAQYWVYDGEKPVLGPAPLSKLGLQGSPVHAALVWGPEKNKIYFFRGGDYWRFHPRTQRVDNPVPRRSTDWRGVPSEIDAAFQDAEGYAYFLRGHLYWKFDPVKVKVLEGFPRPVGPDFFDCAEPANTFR

[2] = biological target: 72 kDa type IV collagenase (Homo sapiens, UniProt P08253); assay: Inhibition of Matrix metalloprotease-2
Neutrophil collagenase = Neutrophil collagenase (Homo sapiens, UniProt P22894); assay: Inhibition of matrix metalloprotease-8
[3] = biological target: Matrix metalloproteinase-9 (Homo sapiens, UniProt P14780); assay: Inhibition of Matrix metalloprotease-9
Chain of Matrix metalloproteinase-9 (P14780 whole entry): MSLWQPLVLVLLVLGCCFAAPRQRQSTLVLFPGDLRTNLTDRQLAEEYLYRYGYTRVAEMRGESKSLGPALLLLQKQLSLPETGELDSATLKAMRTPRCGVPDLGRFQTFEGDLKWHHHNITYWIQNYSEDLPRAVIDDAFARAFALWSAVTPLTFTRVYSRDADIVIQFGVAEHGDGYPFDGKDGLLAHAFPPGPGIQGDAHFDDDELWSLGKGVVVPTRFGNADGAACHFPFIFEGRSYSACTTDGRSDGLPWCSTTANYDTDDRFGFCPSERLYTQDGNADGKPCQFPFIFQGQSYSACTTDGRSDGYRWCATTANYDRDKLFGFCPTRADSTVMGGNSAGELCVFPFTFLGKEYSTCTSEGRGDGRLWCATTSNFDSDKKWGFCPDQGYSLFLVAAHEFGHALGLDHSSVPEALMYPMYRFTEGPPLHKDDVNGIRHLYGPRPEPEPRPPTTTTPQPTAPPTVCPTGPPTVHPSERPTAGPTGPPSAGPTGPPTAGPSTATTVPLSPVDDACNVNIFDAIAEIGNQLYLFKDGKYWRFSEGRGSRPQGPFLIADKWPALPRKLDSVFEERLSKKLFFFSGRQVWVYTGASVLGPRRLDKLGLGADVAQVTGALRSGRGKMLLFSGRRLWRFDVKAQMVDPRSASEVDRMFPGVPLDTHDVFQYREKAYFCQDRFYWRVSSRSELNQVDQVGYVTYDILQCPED

Chain of 72 kDa type IV collagenase (P08253 whole entry): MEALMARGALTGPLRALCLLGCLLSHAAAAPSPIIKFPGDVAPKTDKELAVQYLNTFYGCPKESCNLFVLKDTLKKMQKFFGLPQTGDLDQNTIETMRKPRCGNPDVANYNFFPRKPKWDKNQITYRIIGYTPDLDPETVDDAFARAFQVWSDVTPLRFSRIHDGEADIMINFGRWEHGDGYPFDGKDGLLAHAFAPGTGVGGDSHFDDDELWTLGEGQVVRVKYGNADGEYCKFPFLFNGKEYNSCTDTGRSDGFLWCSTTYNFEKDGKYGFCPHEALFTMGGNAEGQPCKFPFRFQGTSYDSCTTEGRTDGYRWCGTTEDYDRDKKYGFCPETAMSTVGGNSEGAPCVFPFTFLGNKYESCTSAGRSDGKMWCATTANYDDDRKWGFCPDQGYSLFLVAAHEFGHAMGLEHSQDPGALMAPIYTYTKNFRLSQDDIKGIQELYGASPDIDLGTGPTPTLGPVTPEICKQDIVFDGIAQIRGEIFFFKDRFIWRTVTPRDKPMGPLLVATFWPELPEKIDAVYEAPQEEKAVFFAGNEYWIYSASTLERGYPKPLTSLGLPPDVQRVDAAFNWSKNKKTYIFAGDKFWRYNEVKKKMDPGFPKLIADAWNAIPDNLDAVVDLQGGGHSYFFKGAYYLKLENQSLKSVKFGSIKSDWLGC
Chain of Neutrophil collagenase (P22894 whole entry): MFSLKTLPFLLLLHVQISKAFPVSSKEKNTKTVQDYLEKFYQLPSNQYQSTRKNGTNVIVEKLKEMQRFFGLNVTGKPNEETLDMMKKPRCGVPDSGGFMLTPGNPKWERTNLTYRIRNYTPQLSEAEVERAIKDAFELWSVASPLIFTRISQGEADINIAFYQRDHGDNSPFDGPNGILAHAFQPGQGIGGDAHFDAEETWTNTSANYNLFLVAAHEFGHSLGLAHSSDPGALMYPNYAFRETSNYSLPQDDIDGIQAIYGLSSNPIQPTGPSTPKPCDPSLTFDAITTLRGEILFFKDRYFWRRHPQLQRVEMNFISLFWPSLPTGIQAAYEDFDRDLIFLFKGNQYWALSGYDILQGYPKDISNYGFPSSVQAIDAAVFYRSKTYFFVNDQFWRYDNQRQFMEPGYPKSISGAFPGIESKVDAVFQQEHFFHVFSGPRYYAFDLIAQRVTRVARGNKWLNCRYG

Which Ki (Matrilysin) does the source give for `NC(=O)C(Cc1c[nH]c2ccccc12)NC(=O)C(CCCc1ccccc1)CP(=O)(O)C(Cc1ccccc1)NC(=O)OCc1ccccc1` (stereo not given) here?
Its Ki is greater than 2 µM.

And the Ki (Interstitial collagenase)?
Its Ki is greater than 2 µM.

For `NC(=O)C(Cc1c[nH]c2ccccc12)NC(=O)C(CSc1ccccc1OC(F)(F)F)CP(=O)(O)C(Cc1ccccc1)NC(=O)OCc1ccccc1` (stereo not given), which Ki [1] is on record?
Its Ki is 30 µM.

What about the Ki (Collagenase 3) of the same compound?
The Ki was 200 µM.

And the Ki (Stromelysin-3)?
Its Ki is 0.41 µM.

What about the Ki [2] of the same compound?
The Ki was 200 µM.

What about the Ki (Neutrophil collagenase) of the same compound?
The Ki was 200 µM.

And the Ki [3]?
Its Ki is 148 µM.

What does the source list for `COc1ccccc1SCC(CP(=O)(O)C(Cc1ccccc1)NC(=O)OCc1ccccc1)C(=O)NC(Cc1c[nH]c2ccccc12)C(N)=O` (stereo not given)?
Ki [1]: 160 µM; Ki (Collagenase 3): 15.7 µM; Ki (Stromelysin-3): 0.23 µM; Ki [2]: 30 µM; Ki (Neutrophil collagenase): 38.9 µM; Ki [3]: 35.6 µM

Which Ki [1] does the source give for `NC(=O)C(Cc1c[nH]c2ccccc12)NC(=O)C(CSc1ccccc1Br)CP(=O)(O)C(Cc1ccccc1)NC(=O)OCc1ccccc1` (stereo not given) here?
Its Ki is 30.1 µM.

What about the Ki (Collagenase 3) of the same compound?
The Ki was 4.7 µM.

And the Ki (Stromelysin-3)?
Its Ki is 0.11 µM.

What about the Ki [2] of the same compound?
Its Ki is 4.65 µM.

And the Ki (Neutrophil collagenase)?
Its Ki is 18.4 µM.

What about the Ki [3] of the same compound?
The Ki was 3.91 µM.
